# Experimental data from ChEMBL document CHEMBL1132956 (J Med Chem, 2000).
# How the values were obtained:
# Homo sapiens [1] = organism: Homo sapiens; test: tissue or blood
# Description: In vitro assay for PGE-2 production as a function of COX-2 inhibition in whole human blood cultured with lipopolysaccharide (LPS)
# Homo sapiens [2] = organism: Homo sapiens; test: tissue or blood; remark: listed apart in the source
# Description: Analysis of TXB2 as a function of COX-1 activity in heparinized human whole blood.
# [3] = target: Prostaglandin G/H synthase 1 (Homo sapiens, UniProt P23219)
# Sequence of Prostaglandin G/H synthase 1 (P23219 whole entry): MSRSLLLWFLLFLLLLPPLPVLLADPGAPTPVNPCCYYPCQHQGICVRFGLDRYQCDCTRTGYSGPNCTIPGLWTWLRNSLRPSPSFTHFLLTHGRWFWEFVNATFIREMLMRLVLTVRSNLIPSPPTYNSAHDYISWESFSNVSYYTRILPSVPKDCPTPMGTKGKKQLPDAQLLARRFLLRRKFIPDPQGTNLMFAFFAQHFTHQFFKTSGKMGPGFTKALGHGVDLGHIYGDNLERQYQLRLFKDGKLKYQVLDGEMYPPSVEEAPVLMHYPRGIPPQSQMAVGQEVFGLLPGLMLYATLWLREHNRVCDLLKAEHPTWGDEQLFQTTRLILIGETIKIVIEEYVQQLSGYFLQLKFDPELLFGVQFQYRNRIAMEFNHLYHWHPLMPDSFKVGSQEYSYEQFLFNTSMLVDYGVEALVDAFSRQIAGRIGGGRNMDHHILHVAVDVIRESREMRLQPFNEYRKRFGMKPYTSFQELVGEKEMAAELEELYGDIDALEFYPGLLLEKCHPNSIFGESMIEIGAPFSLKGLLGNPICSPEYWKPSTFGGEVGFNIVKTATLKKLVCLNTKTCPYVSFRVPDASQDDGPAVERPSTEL
# Description: In Vitro activity of compound against human recombinant Prostaglandin G/H synthase 1
IC50 (Homo sapiens [1]) [µM],IC50 (Homo sapiens [2]) [µM],IC50 [3] [µM],SMILES
0.164,6.67,–,Cc1ccc(-c2cc(C(F)(F)F)nn2-c2ccc(S(N)(=O)=O)cc2)cc1 [CELECOXIB]
0.329,> 50,1120,NS(=O)(=O)c1ccc(-c2c(-c3ccccc3)noc2CO)cc1 [HYDROXYLATED DERIVATIVE]
0.89,25.4,–,Cc1onc(-c2ccccc2)c1-c1ccc(S(N)(=O)=O)cc1 [VALDECOXIB]
